Reference: ChEMBL document CHEMBL5113508, “Targeting Human CD22/Siglec-2 with Dimeric Sialosides as Novel Oligosaccharide Mimetics” (J Med Chem, 2022)
pIC50: −log10 of the molar value.

Key:
[1] = biological target: B-cell receptor CD22 (Homo sapiens) (UniProt P20273); experiment: Inhibition of to hFc tagged CD22 (unknown origin) assessed as relative inhibitory potency incubated for 4 hrs by ELISA relative to 1,4-bis-(2-Aza-1-oxo-8-(sodium(5-acetamido-3,5,9-trideoxy-9-(4-phenylbenzamido)-D-glycero-alpha-D-galacto-non-2-ulopyranosyloxyonate))-5-thia-octyl)benzene
[2] = biological target: B-cell receptor CD22 (Homo sapiens) (UniProt P20273); experiment: (§1) Inhibition of CD22 in human Daudi cells assessed as relative inhibitory potency in presence of biotinylated dimeric 2-(78-biotinoylamino-1,4,7,10,13,16-hexaoxa-octadecyl)-1,4-bis(2-aza-l-oxo-8-(sodium(5-acetamido-3,5,9-trideoxy-9-(4-phenylbenzamido)-D-glycero-a-D-galacto-non-2-ulopyranosyloxyonate))-5-thia-octyl) benzene preincubated for 15 mins followed by probe addition incubated for 20 mins by flow cytometric analysis relative to 1,4-bis-(2-Aza-1-oxo-8-(sodium(5-acetamido-3,5,9-trideoxy-9-(4-phenylbenzamido)-D-glycero-alpha-D-galacto-non-2-ulopyranosyloxyonate))-5-thia-octyl)benzene; type: cell-based; conditions: time 35.0 min
[3] = biological target: B-cell receptor CD22 (Homo sapiens) (UniProt P20273); experiment: as §1, with “CD22 (unknown origin)” for “CD22”, “1,4-Bis-(2-aza-1-oxo-8-(sodium-(5-acetamido-3,5-dideoxy-D-glycero-alpha-D-galacto-non-2-ulopyranosyloxyonate))-5-thia-octyl)benzene” for “1,4-bis-(2-Aza-1-oxo-8-(sodium(5-acetamido-3,5,9-trideoxy-9-(4-phenylbenzamido)-D-glycero-alpha-D-galacto-non-2-ulopyranosyloxyonate))-5-thia-octyl)benzene”; type: cell-based; conditions: time 35.0 min
B-cell receptor CD22 [4] = biological target: T1, B-cell receptor CD22 (Homo sapiens, UniProt P20273); experiment: Inhibition hFc tagged CD22 incubated for 4 hrs by ELISA
T1 sequence (P20273 whole entry): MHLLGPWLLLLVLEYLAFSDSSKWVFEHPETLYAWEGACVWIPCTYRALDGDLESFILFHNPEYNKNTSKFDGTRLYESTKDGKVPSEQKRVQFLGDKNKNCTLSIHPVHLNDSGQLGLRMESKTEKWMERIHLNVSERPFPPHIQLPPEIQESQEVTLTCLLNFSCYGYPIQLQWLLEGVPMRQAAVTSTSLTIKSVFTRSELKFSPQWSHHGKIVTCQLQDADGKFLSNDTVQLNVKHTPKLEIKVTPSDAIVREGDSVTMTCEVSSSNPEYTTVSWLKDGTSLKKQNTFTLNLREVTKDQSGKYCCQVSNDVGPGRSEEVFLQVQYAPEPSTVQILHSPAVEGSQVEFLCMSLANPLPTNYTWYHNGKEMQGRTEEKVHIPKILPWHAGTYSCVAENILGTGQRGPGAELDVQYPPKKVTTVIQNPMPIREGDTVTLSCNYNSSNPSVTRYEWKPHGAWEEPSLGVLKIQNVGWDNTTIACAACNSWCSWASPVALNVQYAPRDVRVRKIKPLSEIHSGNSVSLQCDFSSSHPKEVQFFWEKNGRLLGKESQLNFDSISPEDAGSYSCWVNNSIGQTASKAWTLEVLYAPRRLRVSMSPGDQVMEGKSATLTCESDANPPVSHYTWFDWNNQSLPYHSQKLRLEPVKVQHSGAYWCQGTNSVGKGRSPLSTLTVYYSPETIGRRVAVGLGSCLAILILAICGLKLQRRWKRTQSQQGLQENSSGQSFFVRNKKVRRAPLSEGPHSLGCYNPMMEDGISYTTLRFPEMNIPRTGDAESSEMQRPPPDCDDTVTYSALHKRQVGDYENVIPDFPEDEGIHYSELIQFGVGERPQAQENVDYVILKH

[5] = biological target: B-cell receptor CD22 (Homo sapiens) (UniProt P20273); experiment: Inhibition of hFc tagged CD22 (unknown origin) assessed as relative inhibitory potency incubated for 4 hrs by ELISA relative to 1,4-Bis-(2-aza-1-oxo-8-(sodium-(5-acetamido-3,5-dideoxy-D-glycero-alpha-D-galacto-non-2-ulopyranosyloxyonate))-5-thia-octyl)benzene
B-cell receptor CD22 [6] = biological target: T1, B-cell receptor CD22; experiment: Inhibition of CD22 in human Daudi cells preincubated for 15 mins followed by biotinylated dimeric 2-(78-biotinoylamino-1,4,7,10,13,16-hexaoxa-octadecyl)-1,4-bis(2-aza-l-oxo-8-(sodium(5-acetamido-3,5,9-trideoxy-9-(4-phenylbenzamido)-D-glycero-a-D-galacto-non-2-ulopyranosyloxyonate))-5-thia-octyl) benzene probe addition incubated for 20 mins by flow cytometric analysis; type: cell-based
[7] = biological target: B-cell receptor CD22 (Homo sapiens) (UniProt P20273); experiment: Antagonist activity at CD22 in IgM stimulated human Daudi cells assessed as increase in calcium flux incubated for 10 mins by flow cytometric analysis; type: cell-based; conditions: dose 2-200 µM, DDE = dose-dependent effect

Structure (SMILES)	fold change (FC) [1]	fold change (FC) [2]	further results
CC(=O)N[C@H]1[C@H]([C@H](O)[C@H](O)CNC(=O)c2ccc(-c3ccccc3)cc2)O[C@@](OCCCSCCNCc2ccc(CNCCSCCCO[C@]3(C(=O)O)C[C@H](O)[C@@H](NC(C)=O)[C@H]([C@H](O)[C@H](O)CNC(=O)c4ccc(-c5ccccc5)cc4)O3)cc2)(C(=O)O)C[C@@H]1O	0.1	0.011	–
CC(=O)N[C@H]1[C@H]([C@H](O)[C@H](O)CNC(=O)c2ccc(-c3ccccc3)cc2)O[C@@](OCCCSCCNC(=O)c2ccc(C(=O)NCCSCCCO[C@]3(C(=O)O)C[C@H](O)[C@@H](NC(C)=O)[C@H]([C@H](O)[C@H](O)CNC(=O)c4ccc(C5CCCCC5)cc4)O3)cc2)(C(=O)O)C[C@@H]1O	–	–	fold change (FC) [3]: 185
CC(=O)N[C@H]1[C@H]([C@H](O)[C@H](O)CNC(=O)c2ccc(-c3ccccc3)cc2)O[C@@](OCCCSCCNC(=O)c2ccccc2)(C(=O)O)C[C@@H]1O	–	–	pIC50 (B-cell receptor CD22 [4]): 9.49; fold change (FC) [5]: 128
CC(=O)N[C@H]1[C@H]([C@H](O)[C@H](O)CNC(=O)c2ccc(-c3cccs3)s2)O[C@@](OCCCSCCNC(=O)c2ccc(C(=O)NCCSCCCO[C@]3(C(=O)O)C[C@H](O)[C@@H](NC(C)=O)[C@H]([C@H](O)[C@H](O)CNC(=O)c4ccc(-c5cccs5)s4)O3)cc2)(C(=O)O)C[C@@H]1O	4.5	0.07	–
CC(=O)N[C@H]1[C@H]([C@H](O)[C@H](O)CNC(=O)c2ccc(-c3ccccc3)cc2)O[C@@](OCCCSCCNC(=O)c2ccc(C(=O)NCCSCCCO[C@]3(C(=O)O)C[C@H](O)[C@@H](NC(C)=O)[C@H]([C@H](O)[C@H](O)CNC(=O)c4ccc(-c5ccccc5)cc4)O3)c(OCCOCCOCCOCCOCCOCCN)c2)(C(=O)O)C[C@@H]1O	–	0.14	–
CC(=O)N[C@H]1[C@H]([C@H](O)[C@H](O)CNC(=O)c2ccc(-c3ccccc3)cc2)O[C@@](OCCCSCCNC(=O)c2ccc(C(=O)NCCSCCCO[C@]3(C(=O)O)C[C@H](NS(=O)(=O)O)[C@@H](NC(C)=O)[C@H]([C@H](O)[C@H](O)CNC(=O)c4ccc(-c5ccccc5)cc4)O3)c(OCCOCCOCCOCCOCCOCCN)c2)(C(=O)O)C[C@@H]1NS(=O)(=O)O	–	34	–
CC(=O)N[C@H]1[C@H]([C@H](O)[C@H](O)CNC(=O)c2ccc(C3CCCCC3)cc2)O[C@@](OCCCSCCNC(=O)c2ccc(C(=O)NCCSCCCO[C@]3(C(=O)O)C[C@H](O)[C@@H](NC(C)=O)[C@H]([C@H](O)[C@H](O)CNC(=O)c4ccc(C5CCCCC5)cc4)O3)cc2)(C(=O)O)C[C@@H]1O	0.1	0.008	–
CC(=O)N[C@H]1[C@H]([C@H](O)[C@H](O)CNC(=O)c2ccc(-c3ccccc3)cc2)O[C@@](OCCCSCCC(=O)Nc2ccc(NC(=O)CCSCCCO[C@]3(C(=O)O)C[C@H](O)[C@@H](NC(C)=O)[C@H]([C@H](O)[C@H](O)CNC(=O)c4ccc(-c5ccccc5)cc4)O3)cc2)(C(=O)O)C[C@@H]1O	0.1	1.5	–
CC(=O)N[C@H]1[C@H]([C@H](O)[C@H](O)CNC(=O)c2ccc(-c3ccccc3)cc2)O[C@](C(=O)O)(n2cc(CCCCNC(=O)c3ccc(C(=O)NCCCCc4cn([C@]5(C(=O)O)C[C@H](O)[C@@H](NC(C)=O)[C@H]([C@H](O)[C@H](O)CNC(=O)c6ccc(-c7ccccc7)cc6)O5)nn4)cc3)nn2)C[C@@H]1O	0.86	< 0.0001	–
CC(=O)N[C@H]1[C@H]([C@H](O)[C@H](O)CNC(=O)c2ccc(-c3ccccc3)cc2)O[C@@](OCc2cn(CCNC(=O)c3ccc(C(=O)NCCn4cc(CO[C@]5(C(=O)O)C[C@H](O)[C@@H](NC(C)=O)[C@H]([C@H](O)[C@H](O)CNC(=O)c6ccc(-c7ccccc7)cc6)O5)nn4)cc3)nn2)(C(=O)O)C[C@@H]1O	0.18	0.0028	–
CC(=O)N[C@H]1[C@H]([C@H](O)[C@H](O)CO)O[C@@](OCCCSCCNC(=O)c2ccc(C(=O)NCCSCCCO[C@]3(C(=O)O)C[C@H](O)[C@@H](NC(C)=O)[C@H]([C@H](O)[C@H](O)CNC(=O)c4ccc(-c5ccccc5)cc4)O3)cc2)(C(=O)O)C[C@@H]1O	–	–	pIC50 (B-cell receptor CD22 [4]): 9.41; fold change (FC) [3]: 135; fold change (FC) [5]: 105; Activity [7]: Dde
CC(=O)N[C@H]1[C@H]([C@H](O)[C@H](O)CO)O[C@@](OCCCSCCNC(=O)c2ccc(C(=O)NCCSCCCO[C@]3(C(=O)O)C[C@H](O)[C@@H](NC(C)=O)[C@H]([C@H](O)[C@H](O)CO)O3)cc2)(C(=O)O)C[C@@H]1O	0.01	0.00034	–

The next lines start with results.

fold change (FC) [1]	fold change (FC) [2]	Structure (SMILES)	further results
0.77	5.9	CC(=O)N[C@H]1[C@H]([C@H](O)[C@H](O)CNC(=O)c2ccc(-c3ccccc3)cc2)O[C@@](OCCCSCCNC(=O)c2ccc(C(=O)NCCSCCCO[C@]3(C(=O)O)C[C@H](O)[C@@H](NC(C)=O)[C@H]([C@H](O)[C@H](O)CNC(=O)c4ccc(-c5ccccc5)cc4)O3)c(Br)c2)(C(=O)O)C[C@@H]1O	–
0.17	0.01	CC(=O)N[C@H]1[C@H]([C@H](O)[C@H](O)CNC(=O)c2ccc(-c3ccccc3)cc2)O[C@@](OCCCSCCNC(=O)c2ccc(-c3ccc(C(=O)NCCSCCCO[C@]4(C(=O)O)C[C@H](O)[C@@H](NC(C)=O)[C@H]([C@H](O)[C@H](O)CNC(=O)c5ccc(-c6ccccc6)cc5)O4)cc3)cc2)(C(=O)O)C[C@@H]1O	–
0.79	0.11	CC(=O)N[C@H]1[C@H]([C@H](O)[C@H](O)CNC(=O)c2ccc(-c3ccccc3)cc2)O[C@@](OCCCSCCNC(=O)c2cccc(C(=O)NCCSCCCO[C@]3(C(=O)O)C[C@H](O)[C@@H](NC(C)=O)[C@H]([C@H](O)[C@H](O)CNC(=O)c4ccc(-c5ccccc5)cc4)O3)c2)(C(=O)O)C[C@@H]1O	–
1.2	3.7	CC(=O)N[C@H]1[C@H]([C@H](O)[C@H](O)CNC(=O)c2ccc(-c3ccccc3)cc2)O[C@@](OCCCSCCNC(=O)c2ccc(C(=O)NCCSCCCO[C@]3(C(=O)O)C[C@H](O)[C@@H](NC(C)=O)[C@H]([C@H](O)[C@H](O)CNC(=O)c4ccc(-c5cccs5)cc4)O3)cc2)(C(=O)O)C[C@@H]1O	–
0.77	0.073	CC(=O)N[C@H]1[C@H]([C@H](O)[C@H](O)CNC(=O)c2ccc(-c3ccccc3)cc2)O[C@@](OCCCSCCNC(=O)CCCCC(=O)NCCSCCCO[C@]2(C(=O)O)C[C@H](O)[C@@H](NC(C)=O)[C@H]([C@H](O)[C@H](O)CNC(=O)c3ccc(-c4ccccc4)cc3)O2)(C(=O)O)C[C@@H]1O	pIC50 (B-cell receptor CD22 [6]): 4.62
5.3	1.3	CC(=O)N[C@H]1[C@H]([C@H](O)[C@H](O)CNC(=O)c2ccc(-c3ccccc3Cl)cc2)O[C@@](OCCCSCCNC(=O)c2ccc(C(=O)NCCSCCCO[C@]3(C(=O)O)C[C@H](O)[C@@H](NC(C)=O)[C@H]([C@H](O)[C@H](O)CNC(=O)c4ccc(-c5ccccc5Cl)cc4)O3)cc2)(C(=O)O)C[C@@H]1O	–
1.6	0.71	CC(=O)N[C@H]1[C@H]([C@H](O)[C@H](O)CNC(=O)c2ccc(-c3ccsc3)cc2)O[C@@](OCCCSCCNC(=O)c2ccc(C(=O)NCCSCCCO[C@]3(C(=O)O)C[C@H](O)[C@@H](NC(C)=O)[C@H]([C@H](O)[C@H](O)CNC(=O)c4ccc(-c5ccsc5)cc4)O3)cc2)(C(=O)O)C[C@@H]1O	–
65	138	CC(=O)N[C@H]1[C@H]([C@H](O)[C@H](O)CNC(=O)c2ccc(-c3ccccc3)cc2)O[C@@](OCCCSCCNC(=O)c2ccc(C(=O)NCCSCCCO[C@]3(C(=O)O)C[C@H](NS(=O)(=O)O)[C@@H](NC(C)=O)[C@H]([C@H](O)[C@H](O)CNC(=O)c4ccc(-c5ccccc5)cc4)O3)cc2)(C(=O)O)C[C@@H]1NS(=O)(=O)O	–
0.49	0.013	CC(=O)N[C@H]1[C@H]([C@H](O)[C@H](O)CNC(=O)c2ccc(-c3ccccc3)cc2)O[C@@](OCCC[S+]([O-])CCNC(=O)c2ccc(C(=O)NCC[S+]([O-])CCCO[C@]3(C(=O)O)C[C@H](O)[C@@H](NC(C)=O)[C@H]([C@H](O)[C@H](O)CNC(=O)c4ccc(-c5ccccc5)cc4)O3)cc2)(C(=O)O)C[C@@H]1O (some centres not stated)	–
